Assay results taken from patent publication US8546381B2, “Bridged heterocyclic compounds and methods of use” (Medivation Technologies, Inc., priority 2008, dated 2013).
Values joined by “and” are separate entries in the source; they are usually repeats but may differ in a detail not shown here. Identical values can stand only once.

Columns and labels:
[1] = target: T1, human recombinant histamine H1 receptor (Homo sapiens, UniProt P35367); assay: Histamine H1 radioligand binding ([3H]Pyrilamine); details: for inhibition at 1 µM / Histamine Binding (1 μM) H1, Percentage Inhibition: compound at 1 μM, inhibition of specific [3H]Pyrilamine binding; for inhibition at 1 µM: read-out: Histamine Binding (1 μM) H1, Percentage Inhibition
T1 construct: expressed in transfected cells; host or cells: CHO cells
Description: To evaluate in radioligand binding assays the activity of compounds of the invention, human recombinant histamine H1 receptor expressed in Chinese hamster ovary (CHO) cells (De Backer, M. D. et al., Biochem. Biophys. Res. Comm. 197(3):1601, 1993) in a modified Tris-HCl buffer (50 mM Tris-HCl, pH 7.4, 2 mM MgCl2, 100 mM NaCl, 250 mM Sucrose) was used. Compounds of the invention were incubated with 1.2 nM [^3H]Pyrilamine for 180 minutes at 25° C. Non-specific binding was estimated in the presence of 1 μM pyrilamine. Receptor proteins were filtered and washed, the filters were then counted to determine [^3H]Pyrilamine specifically bound. Compounds were screened at 1 μM or lower, using 1% DMSO as vehicle. Biochemical assay results are presented as the percent inhibition of specific binding in Table 2.

[2] = target: T2, human recombinant histamine H2 receptor (Homo sapiens, UniProt P25021); assay: Histamine H2 radioligand binding ([125I]Aminopotentidine); details: compound at 1 μM, inhibition of specific [125I]Aminopotentidine binding; for inhibition at 1 µM: read-out: Histamine Binding (1 μM) H2, Percentage Inhibition
T2 construct: expressed in transfected cells; host or cells: CHO-K1 cells
Description: To evaluate in radioligand binding assays the activity of compounds of the invention, human recombinant histamine H2 receptor expressed in Chinese hamster ovary (CHO) K1 cells (Ruat, M., Proc. Natl. Acad. Sci. USA. 87(5):1658, 1990) in a 50 mM Phosphate buffer, pH 7.4 was used. Compounds of the invention were incubated with 0.1 nM [^125I]Aminopotentidine for 120 minutes at 25° C. Non-specific binding was estimated in the presence of 3 μM Tiotidine. Receptor proteins were filtered and washed, the filters were then counted to determine [^125I]Aminopotentidine specifically bound. Compounds were screened at 1 μM or lower, using 1% DMSO as vehicle. Biochemical assay results are presented as the percent inhibition of specific binding in Table 2.

[3] = target: T3, human recombinant serotonin (5-Hydroxytryptamine) 5-HT6 receptor (Homo sapiens, UniProt P50406); assay: Serotonin 5-HT6 radioligand binding ([3H]LSD); details: for inhibition at 1 µM: read-out: Serotonin 5-HT6, inhibition of ligand binding (1 μM)
T3 construct: expressed in transfected cells; host or cells: human HeLa cells
Description: To evaluate in radioligand binding assays the activity of compounds of the invention, human recombinant serotonin (5-Hydroxytryptamine) 5-HT6 receptor expressed in human HeLa cells (Monsma, F. J. Jr. et al., Mol. Pharmacol. 43:320, 1993) in a modified Tris-HCl buffer (50 mM Tris-HCl, pH 7.4, 150 mM NaCl, 2 mM Ascorbic Acid, 0.001% BSA) was used. Compounds of the invention were incubated with 1.5 nM [3H]Lysergic acid diethylamide (LSD) for 120 minutes at 37° C. Non-specific binding was estimated in the presence of 5 μM Serotonin (5-HT). Receptor proteins were filtered and washed, the filters were then counted to determine [3H]LSD specifically bound. Compounds were screened at 1 μM or lower, using 1% DMSO as vehicle. Biochemical assay results are presented as the percent inhibition of specific binding in Table 4.

[4] = target: T4, human recombinant serotonin (5-Hydroxytryptamine) 5-HT2C receptor (Homo sapiens, UniProt P28335); assay: Serotonin 5-HT2C radioligand binding ([3H]Mesulergine); details: for inhibition at 1 µM: read-out: Serotonin 5-HT2C, inhibition of ligand binding (1 μM)
T4 construct: expressed in transfected cells; host or cells: CHO-K1 cells
T4 sequence (P28335 33-458): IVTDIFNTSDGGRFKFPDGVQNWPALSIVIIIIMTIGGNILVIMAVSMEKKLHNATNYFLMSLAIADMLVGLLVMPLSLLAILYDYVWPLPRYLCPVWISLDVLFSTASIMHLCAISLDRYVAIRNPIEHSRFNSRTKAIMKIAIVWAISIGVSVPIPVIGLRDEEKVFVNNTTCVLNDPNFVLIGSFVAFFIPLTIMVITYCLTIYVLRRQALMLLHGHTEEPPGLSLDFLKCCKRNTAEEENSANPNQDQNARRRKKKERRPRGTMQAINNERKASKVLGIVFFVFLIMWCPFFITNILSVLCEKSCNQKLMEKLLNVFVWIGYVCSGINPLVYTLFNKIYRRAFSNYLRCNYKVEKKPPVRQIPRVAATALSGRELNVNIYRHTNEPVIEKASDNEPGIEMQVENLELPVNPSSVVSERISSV
Description: To evaluate in radioligand binding assays the activity of compounds of the invention, human recombinant serotonin (5-Hydroxytryptamine) 5-HT2C receptor expressed in Chinese hamster ovary (CHO-K1) cells (Wolf, W. A. and Schutz, J. S., J. Neurochem. 69:1449, 1997) in a modified Tris-HCl buffer (50 mM Tris-HCl, pH 7.4, 0.1% Ascorbic Acid, 10 μM Pargyline) was used. Compounds of the invention were incubated with 1 nM [^3H]Mesulergine for 60 minutes at 25° C. Non-specific binding was estimated in the presence of 1 μM Mianserin. Receptor proteins were filtered and washed, the filters were then counted to determine [^3H]Mesulergine specifically bound. Compounds were screened at 1 μM or lower, using 1% DMSO as vehicle. Biochemical assay results are presented as the percent inhibition of specific binding in Table 4.

T1 sequence (P35367 whole entry): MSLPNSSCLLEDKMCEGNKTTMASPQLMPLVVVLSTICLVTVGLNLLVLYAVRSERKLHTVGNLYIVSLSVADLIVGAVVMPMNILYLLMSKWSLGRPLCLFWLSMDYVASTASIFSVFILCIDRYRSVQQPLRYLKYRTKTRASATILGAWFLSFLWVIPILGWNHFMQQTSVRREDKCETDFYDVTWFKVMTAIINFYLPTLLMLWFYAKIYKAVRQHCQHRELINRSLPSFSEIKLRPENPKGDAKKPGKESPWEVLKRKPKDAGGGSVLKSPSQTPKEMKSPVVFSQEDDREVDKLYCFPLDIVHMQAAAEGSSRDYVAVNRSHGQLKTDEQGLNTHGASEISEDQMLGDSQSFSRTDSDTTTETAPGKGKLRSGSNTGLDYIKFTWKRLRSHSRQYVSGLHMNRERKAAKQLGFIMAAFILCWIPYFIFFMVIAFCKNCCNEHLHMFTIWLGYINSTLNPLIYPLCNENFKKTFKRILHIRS
T2 sequence (P25021 whole entry): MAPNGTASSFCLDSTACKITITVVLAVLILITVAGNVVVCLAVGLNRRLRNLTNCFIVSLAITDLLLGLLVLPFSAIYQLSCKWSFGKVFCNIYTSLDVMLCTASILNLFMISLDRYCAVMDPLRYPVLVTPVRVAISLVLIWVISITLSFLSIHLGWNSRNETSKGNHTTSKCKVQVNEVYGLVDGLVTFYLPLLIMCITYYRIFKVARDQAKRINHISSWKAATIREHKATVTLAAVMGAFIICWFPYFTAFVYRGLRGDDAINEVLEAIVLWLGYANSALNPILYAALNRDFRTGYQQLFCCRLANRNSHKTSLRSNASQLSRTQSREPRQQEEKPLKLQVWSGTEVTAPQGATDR
T3 sequence (P50406 whole entry): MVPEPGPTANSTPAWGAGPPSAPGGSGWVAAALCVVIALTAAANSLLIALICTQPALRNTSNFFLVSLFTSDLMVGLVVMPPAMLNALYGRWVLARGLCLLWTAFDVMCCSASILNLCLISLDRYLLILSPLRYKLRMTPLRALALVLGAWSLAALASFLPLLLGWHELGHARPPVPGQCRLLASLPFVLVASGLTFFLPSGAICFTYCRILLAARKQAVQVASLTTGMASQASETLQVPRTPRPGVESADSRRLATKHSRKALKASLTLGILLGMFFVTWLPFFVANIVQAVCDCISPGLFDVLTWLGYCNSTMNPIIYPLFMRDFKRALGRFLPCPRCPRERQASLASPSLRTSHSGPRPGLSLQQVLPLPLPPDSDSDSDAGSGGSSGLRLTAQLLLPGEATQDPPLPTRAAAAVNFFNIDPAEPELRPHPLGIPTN

Cc1ccc2c(c1)c1c(n2CCc2ccccc2)CC2CCC1N2C (stereo not drawn) [Compound 2]
inhibition at 0.01 µM ([1]; compound at 10.0 nM, read-out: Histamine Binding H1, Percentage Inhibition (10.0 nM)): 42% | inhibition at 0.1 µM ([1]; compound at 0.1 μM, read-out: Histamine Binding H1, Percentage Inhibition (0.1 μM)): 85% | inhibition at 1 µM [1]: 99% | inhibition at 1 µM [2]: 43% | inhibition at 1 µM [3]: 82% | inhibition at 1 µM [4]: 79%

CN1C2CCC1c1c(n(CCC(=O)N3CCNC(=O)C3)c3ccc(Cl)cc13)C2 (stereo not drawn) [Compound 3]
inhibition at 1 µM [1]: 12% | inhibition at 1 µM [2]: 2% | inhibition at 1 µM [3]: 3% | inhibition at 1 µM [4]: 2%

CN1C2CCC1c1c(n(CCC(=O)N3CCCC3)c3ccc(Cl)cc13)C2 (stereo not drawn) [Compound 5]
inhibition at 1 µM [1]: 32% | inhibition at 1 µM [2]: -9% | inhibition at 1 µM [3]: 7% | inhibition at 1 µM [4]: -9%

CC(=O)N1CCN(C(=O)CCn2c3c(c4cc(Cl)ccc42)C2CCC(C3)N2C)CC1 (stereo not drawn) [Compound 8]
inhibition at 1 µM [1]: 16% | inhibition at 1 µM [2]: 9% | inhibition at 1 µM [3]: -1% | inhibition at 1 µM [4]: -6%

CN1C2CCC1c1c(n(CCC(=O)N3CCNCC3)c3ccc(Cl)cc13)C2 (stereo not drawn) [Compound 9]
inhibition at 1 µM [1]: 6% | inhibition at 1 µM [2]: 3% | inhibition at 1 µM [3]: 2% | inhibition at 1 µM [4]: 5%

CN1C2CCC1c1c(n(CCC(=O)N3CC[S+]([O-])CC3)c3ccc(Cl)cc13)C2 (stereo not drawn) [Compound 10]
inhibition at 1 µM [1]: 7% | inhibition at 1 µM [2]: 1% | inhibition at 1 µM [3]: -13% | inhibition at 1 µM [4]: 4%

CN1C2CCC1c1c(n(CCC(=O)N3CCS(=O)(=O)CC3)c3ccc(Cl)cc13)C2 (stereo not drawn) [Compound 11]
inhibition at 1 µM [1]: 2% | inhibition at 1 µM [2]: 9% | inhibition at 1 µM [3]: -16% | inhibition at 1 µM [4]: 13%

CN1C2CCC1c1c(n(CCC(=O)N3CCSCC3)c3ccc(Cl)cc13)C2 (stereo not drawn) [Compound 12]
inhibition at 1 µM [1]: 29% | inhibition at 1 µM [2]: -2% | inhibition at 1 µM [3]: -1% | inhibition at 1 µM [4]: 26%

CN1C2CCC1c1c(n(CCC(=O)N3CCOCC3)c3ccc(Cl)cc13)C2 (stereo not drawn) [Compound 13]
inhibition at 1 µM [1]: 28% | inhibition at 1 µM [2]: -2% | inhibition at 1 µM [3]: 10% | inhibition at 1 µM [4]: 8%

Cc1ccc2c(c1)c1c(n2CCc2ccc(C)nc2)CC2CCC1N2C (stereo not drawn) [Compound 32]
inhibition at 1 µM [1]: 94% | inhibition at 1 µM [2]: 13% | inhibition at 1 µM [3]: 13% | inhibition at 1 µM [4]: -3%

CN1C2CCC1c1c(n(CCc3ccc(Cl)cc3)c3ccc(F)cc13)C2 (stereo not drawn) [Compound 33]
inhibition at 1 µM [1]: 86% | inhibition at 1 µM [2]: 18% | inhibition at 1 µM [3]: 14% | inhibition at 1 µM [4]: 64%

CN1C2CCC1c1c(n(CCc3ccc(C(F)(F)F)nc3)c3ccc(Cl)cc13)C2 (stereo not drawn) [Compound 34]
Histamine Binding (1 μM) H1, Percentage Inhibition [1]: 55.0% | inhibition at 1 µM [1]: 52% | Histamine Binding (1 μM) H2, Percentage Inhibition ([2]; 1 µM): 24.0% | inhibition at 1 µM [2]: 12% | Serotonin 5-HT6, inhibition of ligand binding (1 μM) [3]: 28.0% | inhibition at 1 µM [3]: 20% | Serotonin 5-HT2C, inhibition of ligand binding (1 μM) ([4]; 1 µM): 28.0% | inhibition at 1 µM [4]: 27%

CN1C2CCC1c1c(n(CCc3ccc(F)cc3)c3ccc(F)cc13)C2 (stereo not drawn) [Compound 35]
inhibition at 1 µM [1]: 93% | inhibition at 1 µM [2]: 27% | inhibition at 1 µM [3]: 70% | inhibition at 1 µM [4]: 86%

CN1C2CCC1c1c(n(CCCc3ccc(C(F)(F)F)nc3)c3ccc(Cl)cc13)C2 (stereo not drawn) [Compound 37]
inhibition at 1 µM [1]: 78% | inhibition at 1 µM [2]: 7% | inhibition at 1 µM [3]: 22% | inhibition at 1 µM [4]: 26%

Cc1ccc(CCCn2c3c(c4cc(Cl)ccc42)C2CCC(C3)N2C)cn1 (stereo not drawn) [Compound 38]
inhibition at 1 µM [1]: 96% | inhibition at 1 µM [2]: 9% | inhibition at 1 µM [3]: 17% | inhibition at 1 µM [4]: 23%

CN1C2CCC1c1c(n(CCCc3ccc(Cl)cc3)c3ccc(Cl)cc13)C2 (stereo not drawn) [Compound 39]
inhibition at 1 µM [1]: 91% | inhibition at 1 µM [2]: 86% | inhibition at 1 µM [3]: 24% | inhibition at 1 µM [4]: 94%

Cc1ccc(C(O)Cn2c3c(c4cc(Cl)ccc42)C2CCC(C3)N2C)cn1 (stereo not drawn) [Compound 52]
inhibition at 1 µM [1]: 91% | inhibition at 1 µM [2]: 2% | inhibition at 1 µM [3]: 16% | inhibition at 1 µM [4]: 11%

Cc1ccc2c(c1)c1c(n2CC(C)(O)c2ccc(Cl)cc2)CC2CCC1N2C (stereo not drawn) [Compound 54]
inhibition at 1 µM [1]: 63% | inhibition at 1 µM [2]: 50% | inhibition at 1 µM [3]: 26% | inhibition at 1 µM [4]: 93%

Cc1ccc2c(c1)c1c(n2CCc2ccccc2)CC2CCCC1N2C (stereo not drawn) [Compound 56]
inhibition at 1 µM [1]: 86% | inhibition at 1 µM [2]: 16% | inhibition at 1 µM [3]: 30% | inhibition at 1 µM [4]: 36%

CN1C2CCC1c1c(n(CCc3ccc(F)cc3)c3ccc(Cl)cc13)C2 (stereo not drawn) [Compound 57]
inhibition at 1 µM [1]: 96% | inhibition at 1 µM [2]: 37% | inhibition at 1 µM [3]: 46% | inhibition at 1 µM [4]: 88%

CN1C2CCC1c1c(n(CCc3ccc(Cl)cc3)c3ccc(Cl)cc13)C2 (stereo not drawn) [Compound 58]
inhibition at 1 µM [1]: 98% | inhibition at 1 µM [2]: 52% | inhibition at 1 µM [3]: 25% | inhibition at 1 µM [4]: 84%

CN1C2CCC1c1c(n(CC(=O)N3CCOCC3)c3ccc(Cl)cc13)C2 (stereo not drawn) [Compound 59, 2-(2-chloro-11-methyl-5,6,7,8,9,10-Hexahydro-7,10-iminocyclohept[b]indol-5-yl)-1-morpholinoethanone]
inhibition at 1 µM [1]: 7% | inhibition at 1 µM [2]: 15% | inhibition at 1 µM [3]: 0% | inhibition at 1 µM [4]: 8%

CN1C2CCC1c1c(n(CC(=O)N3CCCC3)c3ccc(Cl)cc13)C2 (stereo not drawn) [Compound 60]
inhibition at 1 µM [1]: 21% | inhibition at 1 µM [2]: 3% | inhibition at 1 µM [3]: 9% | inhibition at 1 µM [4]: 15%

Cc1ccc(CCn2c3c(c4cc(Cl)ccc42)C2CCC(C3)N2C)cc1 (stereo not drawn) [Compound 61]
inhibition at 1 µM [1]: 98% | inhibition at 1 µM [2]: 52% | inhibition at 1 µM [3]: 41% | inhibition at 1 µM [4]: 86%

Cc1ccc2c(c1)c1c(n2CCc2ccc(F)cc2)CC2CCC1N2C (stereo not drawn) [Compound 62]
inhibition at 1 µM [1]: 98% | inhibition at 1 µM [2]: 52% | inhibition at 1 µM [3]: 71% | inhibition at 1 µM [4]: 87%

CCOC(=O)CCn1c2c(c3cc(Cl)ccc31)C1CCC(C2)N1C (stereo not drawn) [Compound 70, ethyl 3-(2-chloro-11-methyl-5,6,7,8,9,10-hexahydro-7,10-iminocyclohept[b]indol-5-yl)propanoate]
inhibition at 1 µM [1]: 65% | inhibition at 1 µM [2]: 7% | inhibition at 1 µM [3]: 3% | inhibition at 1 µM [4]: 4%

Cc1ccc2c(c1)c1c(n2CCc2ccc(C(F)(F)F)nc2)CC2CCC1N2C (stereo not drawn) [Compound 71]
Histamine Binding (1 μM) H1, Percentage Inhibition [1]: 46.0% | inhibition at 1 µM [1]: 33% | Serotonin 5-HT6, inhibition of ligand binding (1 μM) [3]: 8.0/ % and 2.0% | inhibition at 1 µM [4]: -0.259%
